Results taken from paper PMC5626781, “A Potent Tartrate Resistant Acid Phosphatase Inhibitor to Study the Function of TRAP in Alveolar Macrophages” (Scientific Reports, 2017).

Key:
[1] = biological target: T1, TRAP activity in lysates of murine MPI alveolar macrophages (Mus musculus, UniProt Q05117); experiment: TRAP activity assay on MPI alveolar macrophage lysates; format: biochemical; conditions: cell lysates of murine MPI alveolar macrophages; mean ± standard error, n = 3
T1 construct: endogenous in cells; host or cells: murine MPI alveolar-like macrophages
T1 sequence (Q05117 23-327): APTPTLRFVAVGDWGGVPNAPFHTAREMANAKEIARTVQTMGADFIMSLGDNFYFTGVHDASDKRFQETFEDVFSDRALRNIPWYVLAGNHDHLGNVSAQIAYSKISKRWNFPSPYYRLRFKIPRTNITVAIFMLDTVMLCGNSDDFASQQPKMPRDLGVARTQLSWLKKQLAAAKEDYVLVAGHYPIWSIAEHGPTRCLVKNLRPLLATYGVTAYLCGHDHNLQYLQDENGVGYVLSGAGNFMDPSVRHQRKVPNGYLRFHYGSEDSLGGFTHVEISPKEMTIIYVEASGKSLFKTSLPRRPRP
Protocol: Mouse alveolar macrophage lysates were obtained by resuspending 500.000 MPI macrophages in 300 μl acetate buffer. Human lung lysates from COPD patients were used to test the inhibitor on human TRAP present in lung tissue. Lysates from in total 18 COPD patients were pooled (see Supplementary Table S3 for patient characteristics).
(§1) AubipyOMe was tested in the range 0–40 μM with MPI cell lysates or pooled lung tissue lysates from COPD patients using a TRAP activity assay. Lysates were incubated at 37 °C for 30 min in the presence of PNPP solution (1:1 ratio). 1M NaOH was added to stop the reaction and absorption was measured at 410 nm with 490 nm as a reference value.
(§2) The inhibitory effects of gold compounds were calculated as the ratio of absorbance between the treated and untreated wells. The IC50 values were calculated using nonlinear curve fitting with a variable slope in Graphpad Prism 6 (Graphpad Software, la Jolla, USA). An average IC50 of three independent experiments was calculated.
Identification of TRAP inhibitors […]
Inhibitor dilutions were prepared in acetate buffer from freshly prepared stock solutions (10 mM in DMSO). […] To stop the reaction, 1M NaOH was added and absorption at 410 nm, with 490 nm as a reference value, was measured using a spectrophotometer. […]
The inhibitory effects of gold compounds were calculated as the ratio of absorbance between the treated and untreated wells. […]

RAW264.7 macrophages = experiment: MTT assay; format: cell-based, mouse
Protocol: The effect of AubipyOMe and NaAuCl4 on RAW264.7 cell growth was assessed with a classical MTT assay. The IC50 values were calculated using nonlinear curve fitting with a variable slope in Graphpad Prism 6 (Graphpad Software) An average IC50 of four independent experiments was calculated.
as §1, with “0-40” for “0–40”, “assay. MPI lysates were diluted 1:1 and COPD tissue lysates 1:20 with acetate buffer and incubated with increasing concentrations inhibitor, that were prepared from freshly made stock solutions (10 mM in DMSO) and diluted with acetate buffer.” for “assay.”, “37° C” for “37 °C”
as §2
The effect of AubipyOMe and NaAuCl4 on cell growth was assessed with a classical MTT assay.
RAW264.7 macrophages were seeded in 96-well plates at a concentration of 10,000 cells/well and grown for 24h in complete medium. Compound dilutions were prepared in complete medium from a freshly prepared stock solution (10 mM in DMSO) and added to the wells (200 μl) to obtain a final concentration (0 to 100 μM). […] The optical density of each well was quantified in quadruplicate at 540 nm, using a multi-well plate reader, and the percentage of surviving cells was calculated from the ratio of absorbance between treated and untreated cells. The IC50 values were calculated using nonlinear curve fitting with a variable slope in Graphpad Prism 6 (Graphpad Software) An average

`COc1ccnc(-c2cc(OC)ccn2)c1.F[P-](F)(F)(F)(F)F.[Cl][Au+][Cl]` [AubipyOMe, [Au(4,4′-dimethoxy-2,2′-bipyridine)Cl2][PF6]] was tested, and the IC50 [1] was 1.7 ± 0.4 µM, the IC50 (RAW264.7 macrophages; RAW264.7 macrophages, 72 h, n = 4, read-out: IC50 cytotoxicity) was ~35 µM and the “cytotoxic effects on RAW264.7 macrophages” value (RAW264.7 macrophages; at concentrations around the TRAP IC50 values) was “no cytotoxic effects”.
